Assay results as given in PubChem BioAssay (NCI).
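Cultured in 96-well plates, cells were exposed to test compound for 48 hours across five concentrations. Here, GI50 denotes the concentration required for 50% inhibition of growth. The concentration for full growth arrest is given as TGI.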

Key:
Assay in all cases: NCI tumour cell line growth inhibition, 48 h
HS 578T breast = tested on: HS 578T breast
K-562 leukemia = tested on: K-562 leukemia
MDA-MB-231 breast = tested on: MDA-MB-231 breast
OVCAR-4 ovarian = tested on: OVCAR-4 ovarian
RXF 393 renal = tested on: RXF 393 renal
SK-MEL-28 melanoma = tested on: SK-MEL-28 melanoma
SN12C renal = tested on: SN12C renal
T-47D breast = tested on: T-47D breast
NCI-H522 lung = tested on: NCI-H522 lung
MDA-N = tested on: MDA-N

Cc1ccc2c(=O)cc(-c3ccc(Cl)s3)[nH]c2n1
TGI (HS 578T breast): > 22.9 µM
TGI (K-562 leukemia): > 100 µM
TGI (MDA-MB-231 breast): > 100 µM
TGI (OVCAR-4 ovarian): > 100 µM
TGI (RXF 393 renal): > 25.7 µM
TGI (SK-MEL-28 melanoma): > 100 µM
TGI (SN12C renal): > 52.9 µM
TGI (T-47D breast): > 100 µM

Cc1cc(F)ccc1S(=O)(=O)Nc1cc(-c2c(O)ccc3ccccc23)c(O)c2ccccc12
GI50 (HS 578T breast): 2.6 µM
TGI (HS 578T breast): 10.2 µM
GI50 (K-562 leukemia): 3.56 µM
TGI (K-562 leukemia): 13 µM
GI50 (MDA-MB-231 breast): 2.64 µM
TGI (MDA-MB-231 breast): 13.8 µM
GI50 (NCI-H522 lung): 1.77 µM
TGI (NCI-H522 lung): 4.77 µM
GI50 (OVCAR-4 ovarian): 2.21 µM
TGI (OVCAR-4 ovarian): 6.66 µM
GI50 (RXF 393 renal): 2.53 µM
TGI (RXF 393 renal): 9.11 µM
GI50 (SK-MEL-28 melanoma): 3.12 µM
TGI (SK-MEL-28 melanoma): 9.74 µM
GI50 (SN12C renal): 2.8 µM
TGI (SN12C renal): 15.5 µM

CCN(CC)N1C(=O)[N+](CC)(CC)N=C1[O-]
TGI (HS 578T breast): > 100 µM
TGI (MDA-MB-231 breast): > 100 µM
TGI (MDA-N): > 100 µM
TGI (NCI-H522 lung): > 100 µM
TGI (OVCAR-4 ovarian): > 100 µM
TGI (SK-MEL-28 melanoma): > 100 µM
TGI (SN12C renal): > 100 µM
TGI (T-47D breast): > 100 µM

COc1cc2ccc(=O)oc2cc1O
TGI (K-562 leukemia): 562 µM
TGI (NCI-H522 lung): 618 µM
TGI (OVCAR-4 ovarian): > 172 µM
TGI (RXF 393 renal): > 569 µM
TGI (SK-MEL-28 melanoma): > 625 µM
TGI (SN12C renal): 282 µM

CN(C)C(=O)OC1C(=O)N(C)c2ccc(Cl)cc2C2(c3ccccc3)N1C2(Cl)Cl (configuration not stated)
TGI (K-562 leukemia): > 100 µM
TGI (NCI-H522 lung): > 100 µM
TGI (OVCAR-4 ovarian): > 100 µM
TGI (RXF 393 renal): > 100 µM
TGI (SK-MEL-28 melanoma): > 100 µM
TGI (SN12C renal): > 100 µM

COc1ccc(N2C(=O)CC(=O)N(C(=O)COc3ccc(OCC(=O)N4C(=O)CC(=O)N(c5ccc(OC)cc5)C4=S)cc3)C2=S)cc1
TGI (K-562 leukemia): > 100 µM
TGI (MDA-MB-231 breast): > 100 µM
TGI (MDA-N): > 100 µM
TGI (NCI-H522 lung): > 100 µM
TGI (OVCAR-4 ovarian): > 100 µM
TGI (RXF 393 renal): 77.3 µM
TGI (SK-MEL-28 melanoma): > 100 µM
TGI (SN12C renal): > 100 µM

COC(=O)C1(Cc2ccc3c(c2)CCC3)Cc2ccccc2C1O (configuration not stated)
TGI (HS 578T breast): 48.1 µM
TGI (K-562 leukemia): 40.5 µM
TGI (MDA-MB-231 breast): 67.4 µM
TGI (MDA-N): 13.5 µM
TGI (NCI-H522 lung): 30.1 µM
TGI (OVCAR-4 ovarian): 27.8 µM
TGI (SK-MEL-28 melanoma): 33 µM
TGI (SN12C renal): 29.2 µM
TGI (T-47D breast): > 100 µM

O=C1CCCCC/C1=C\c1ccc([N+](=O)[O-])cc1
TGI (K-562 leukemia): > 100 µM
TGI (MDA-MB-231 breast): 37.9 µM
TGI (MDA-N): > 100 µM
TGI (RXF 393 renal): > 100 µM
TGI (SK-MEL-28 melanoma): > 100 µM
TGI (SN12C renal): 59.6 µM
TGI (T-47D breast): > 100 µM

Cc1cc(C)nc(SC2=C(Nc3ccc(C)c(Cl)c3)C(=O)N(Cc3ccccc3)C2=O)n1
GI50 (HS 578T breast): > 160 µM
TGI (HS 578T breast): > 160 µM
GI50 (NCI-H522 lung): > 160 µM
TGI (NCI-H522 lung): > 160 µM
GI50 (OVCAR-4 ovarian): > 160 µM
TGI (OVCAR-4 ovarian): > 160 µM
GI50 (SK-MEL-28 melanoma): > 160 µM
TGI (SK-MEL-28 melanoma): > 160 µM

CC(=C(c1ccccc1)c1ccccc1)N1C(=O)CC(=O)N1C
TGI (HS 578T breast): 55.4 µM
TGI (K-562 leukemia): > 100 µM
TGI (MDA-N): > 100 µM
TGI (OVCAR-4 ovarian): 79.5 µM
TGI (RXF 393 renal): 61.6 µM
TGI (SK-MEL-28 melanoma): > 100 µM
TGI (SN12C renal): > 100 µM
TGI (T-47D breast): > 100 µM

COc1c(O)c(C=O)c2c(O)c(-c3c(C)cc4c(C(C)C)c(OC)c(O)c(C=O)c4c3O)c(C)cc2c1C(C)C
TGI (K-562 leukemia): > 100 µM
TGI (NCI-H522 lung): 6.56 µM
TGI (OVCAR-4 ovarian): 14 µM
TGI (RXF 393 renal): 5.75 µM
TGI (SK-MEL-28 melanoma): 22.7 µM
TGI (SN12C renal): 8.45 µM

O=c1cc(N2CCCC2)[nH]c(=O)n1Cc1ccccc1
TGI (K-562 leukemia): > 100 µM
TGI (MDA-MB-231 breast): > 100 µM
TGI (NCI-H522 lung): > 100 µM
TGI (OVCAR-4 ovarian): > 100 µM
TGI (SK-MEL-28 melanoma): > 100 µM
TGI (SN12C renal): > 100 µM

C/C=C/c1cc(=O)c([C@@H]2OC(=O)c3cc(OC)cc(OC)c32)co1
TGI (K-562 leukemia): > 100 µM
TGI (OVCAR-4 ovarian): > 100 µM
TGI (RXF 393 renal): > 100 µM
TGI (SK-MEL-28 melanoma): > 100 µM

NC(=O)c1cccc([N+](=O)[O-])c1
TGI (K-562 leukemia): > 100 µM
TGI (NCI-H522 lung): > 100 µM
TGI (SK-MEL-28 melanoma): > 100 µM
TGI (SN12C renal): > 100 µM

CC(=O)Oc1cc2c(cc1OC(C)=O)OCC(c1ccc(C)cc1)C2 (configuration not stated)
TGI (K-562 leukemia): 72.3 µM
TGI (NCI-H522 lung): 6.86 µM
TGI (OVCAR-4 ovarian): 25.7 µM
TGI (RXF 393 renal): 34.6 µM
TGI (SK-MEL-28 melanoma): 39.3 µM
TGI (SN12C renal): 33.2 µM

CN(C)c1nc(N)nc(CS)n1
TGI (HS 578T breast): > 100 µM
TGI (K-562 leukemia): > 100 µM
TGI (MDA-MB-231 breast): > 100 µM
TGI (NCI-H522 lung): > 100 µM
TGI (OVCAR-4 ovarian): > 100 µM
TGI (RXF 393 renal): > 100 µM
TGI (SK-MEL-28 melanoma): > 100 µM
TGI (SN12C renal): > 100 µM
TGI (T-47D breast): > 100 µM

O=C1C(Cl)=C(OCCCl)C(=O)c2c(O)ccc(O)c21
TGI (K-562 leukemia): 1.08 µM
TGI (MDA-MB-231 breast): 10.6 µM
TGI (MDA-N): 7.37 µM
TGI (OVCAR-4 ovarian): 5.46 µM
TGI (RXF 393 renal): 18.6 µM
TGI (SK-MEL-28 melanoma): 12.5 µM
TGI (SN12C renal): 28 µM
TGI (T-47D breast): 4 µM

CCNC(=S)N=Nc1c(O)[nH]c2ccc([N+](=O)[O-])cc12
TGI (HS 578T breast): > 100 µM
TGI (K-562 leukemia): > 100 µM
TGI (MDA-MB-231 breast): > 100 µM
TGI (MDA-N): > 100 µM
TGI (OVCAR-4 ovarian): > 100 µM
TGI (RXF 393 renal): 80.4 µM
TGI (SK-MEL-28 melanoma): > 100 µM
TGI (SN12C renal): > 100 µM
TGI (T-47D breast): > 100 µM

C=C[C@@H](C)[C@H](NS(=O)(=O)c1ccc(C)cc1)C(=O)OCC
TGI (HS 578T breast): 56.4 µM
TGI (K-562 leukemia): > 100 µM
TGI (MDA-MB-231 breast): > 100 µM
TGI (MDA-N): 83.6 µM
TGI (NCI-H522 lung): 57.5 µM
TGI (OVCAR-4 ovarian): > 100 µM
TGI (RXF 393 renal): > 100 µM
TGI (SK-MEL-28 melanoma): > 100 µM
TGI (SN12C renal): > 100 µM

COC(=O)C1CCC(=S)N1C(=O)c1ccccc1 (configuration not stated)
TGI (HS 578T breast): > 100 µM
TGI (K-562 leukemia): > 100 µM
TGI (MDA-MB-231 breast): > 100 µM
TGI (MDA-N): > 100 µM
TGI (NCI-H522 lung): > 100 µM
TGI (OVCAR-4 ovarian): > 100 µM
TGI (RXF 393 renal): > 100 µM
TGI (SK-MEL-28 melanoma): > 100 µM
TGI (T-47D breast): > 100 µM

CC(C)=NN/C(=N\S(=O)(=O)c1ccc(Oc2cccc(Cl)c2C#N)cc1)Nc1ccc(Cl)cc1
TGI (HS 578T breast): > 100 µM
TGI (K-562 leukemia): > 100 µM
TGI (MDA-MB-231 breast): > 100 µM
TGI (MDA-N): > 100 µM
TGI (NCI-H522 lung): > 100 µM
TGI (OVCAR-4 ovarian): > 100 µM
TGI (SK-MEL-28 melanoma): > 100 µM
TGI (SN12C renal): > 100 µM
TGI (T-47D breast): > 100 µM

COC(OC)[C@@H]1OC[C@H](n2cnc3c(N)ncnc32)[C@H]1O
TGI (HS 578T breast): > 100 µM
TGI (K-562 leukemia): > 100 µM
TGI (MDA-MB-231 breast): > 100 µM
TGI (MDA-N): > 100 µM
TGI (OVCAR-4 ovarian): > 100 µM
TGI (RXF 393 renal): > 100 µM
TGI (SK-MEL-28 melanoma): > 100 µM
TGI (SN12C renal): > 100 µM
TGI (T-47D breast): > 100 µM

OCCO/N=C1\C(c2c(O)[nH]c3ccccc23)=Nc2ccccc21
TGI (HS 578T breast): > 100 µM
TGI (K-562 leukemia): > 100 µM
TGI (MDA-N): > 100 µM
TGI (NCI-H522 lung): > 100 µM
TGI (OVCAR-4 ovarian): > 100 µM
TGI (RXF 393 renal): > 100 µM
TGI (SK-MEL-28 melanoma): > 100 µM
TGI (SN12C renal): > 100 µM
TGI (T-47D breast): > 100 µM

CO/N=C1\CC(NC(=O)CNC(=O)OC(C)(C)C)c2ccsc21 (configuration not stated)
TGI (HS 578T breast): > 100 µM
TGI (MDA-MB-231 breast): > 100 µM
TGI (MDA-N): > 100 µM
TGI (OVCAR-4 ovarian): > 100 µM
TGI (RXF 393 renal): > 100 µM
TGI (SK-MEL-28 melanoma): > 100 µM
TGI (SN12C renal): > 100 µM
TGI (T-47D breast): > 100 µM

CC1(C)N/C(=C\C=O)C(C)(C)N1O
TGI (HS 578T breast): > 100 µM
TGI (K-562 leukemia): > 100 µM
TGI (MDA-MB-231 breast): > 100 µM
TGI (MDA-N): > 100 µM
TGI (OVCAR-4 ovarian): > 100 µM
TGI (RXF 393 renal): > 100 µM
TGI (SK-MEL-28 melanoma): > 100 µM
TGI (SN12C renal): > 100 µM
